Measurements as given in article PMC4363860 (Scientific Reports, 2015).
Like-named read-outs stand apart in the source and are kept apart here. Where a SMILES comes first, the peptide text is derived from it. [ ]: non-standard residue; d: D form. The star is where a group is joined. Lauroyl = CCCCCCCCCCCC(=O)*; 12Ado = NCCCCCCCCCCCC(=O)O

What was measured:
[1] = system: Human blood (red cells, 1% hematocrit); conditions: 3 h incubation in PBS 37°C; published data; cited from earlier work
Text: Table 1 Structure-activity study highlighting biophysical attributes of N-terminal OAK derivatives | column: LC50 ^d (μM)

[2] = system: panel of GNB: E. coli 35218, 14182, 16327, 16329, 14384, S. Typhimurium 14028, S. stanley 7308, K. pneumoniae 1287, KPC2; assay: MIC and chemo-sensitization, one result for the whole panel of GNB (Suppl. Table S1)
Klebsiella = assay: MIC (Suppl. Figs S2, S3); assay type: cell-based
E. coli = assay: MIC and reciprocal sensitization (Fig. 2a,b; Suppl. Figs S2, S3); assay type: cell-based, Escherichia coli
[3] = one value for all nine listed strains
[4] = one value for all nine listed strains, OAK 1.25 µg/ml
[5] = one value for all nine listed strains, OAK 2.5 µg/ml
[6] = one value for all nine listed strains, OAK 5 µg/ml

CCCCCCCCCCCC(=O)N[C@@H](CCCCN)C(=O)N[C@@H](CCCCN)C(=O)NCCCCCCCCCCCC(=O)N[C@@H](CCCCN)C(N)=O [C12X] (Lauroyl-KK[12Ado]K-NH2)
LC50, OAK concentration that induced 50% hemolysis [1]: 29 ± 9 µM

CC1(C)S[C@@H]2[C@H](NC(=O)Cc3ccccc3)C(=O)N2[C@H]1C(=O)O [Penicillin G, penicillin G]
SF, sensitization factor, penicillin G with C10KKc12K [2, 3]: 1
SF, sensitization factor, penicillin G with C12(ω7)KKc12K [2, 3]: 1
MIC of penicillin G in presence of C10KKc12K [2, 4]: > 512 µg/mL
MIC of penicillin G in presence of C12(ω7)KKc12K [2, 4]: > 512 µg/mL
MIC of penicillin G in presence of C10KKc12K [2, 5]: > 512 µg/mL
MIC of penicillin G in presence of C12(ω7)KKc12K [2, 5]: > 512 µg/mL
MIC of penicillin G in presence of C10KKc12K [2, 6]: > 512 µg/mL
MIC of penicillin G in presence of C12(ω7)KKc12K [2, 6]: > 512 µg/mL
MIC ([2]; read-out: MIC of penicillin G in presence of C10KKc12K): > 512 µg/mL
MIC ([2]; read-out: MIC of penicillin G in presence of C12(ω7)KKc12K): > 512 µg/mL

NCCCC[C@H](NC(=O)CCCCCCCCCCCNC(=O)[C@H](CCCCN)NC(=O)[C@@H](N)CCCCN)C(N)=O [X, lysyl-lysyl-aminododecanoyl-lysyl-amide] (H-KK[12Ado]K-NH2)
LC50, OAK concentration that induced 50% hemolysis [1]: >100 µM

CC[C@H]1OC(=O)[C@H](C)[C@@H](O[C@H]2C[C@@](C)(OC)[C@@H](O)[C@H](C)O2)[C@H](C)[C@@H](O[C@@H]2O[C@H](C)C[C@H](N(C)C)[C@H]2O)[C@](C)(O)C[C@@H](C)C(=O)[C@H](C)[C@@H](O)[C@]1(C)O [erythromycin]
standalone antibiotic MIC (Klebsiella): 512 µg/mL
standalone antibiotic MIC (E. coli): 512 µg/mL
